The structures appear in SMILES notation.

For series [1], the system named is female rats during pregnancy. The experiment in a line: Teratogenic effects in the rat. It counts as in vivo. The note with it: dose of 6 mg/kg/day, subcutaneously, day 8 to 14 of pregnancy. The source says:
Teratogenic effects in the rat.
The compounds were administrated subcutaneously to female rats during pregnancy, i.e., day 8 to 14 of pregnancy. The rats were caesarean sectioned and necropsied on day 20 after fertilisation. The foetuses were examined for external and internal abnormalities.

Series [2] deals with acute experimental autoimmune encephalomyelitis (aEAE). The series is described as follows: Acute experimental autoimmune encephalomyelitis (aEAE) inhibition. The format is in vivo. The note with it: at ≥5 mg/kg, mice, treatment control.
The next series relates to beagle dogs. The experiment in a line: Beagle Pain Syndrome (BPS). The format is in vivo. The following applies: different breeds of beagle dogs. Here is the method: The disease is reflected by clinical and laboratory manifestations justifying BPS as a model for the flu-like syndrome induced by roquinimex in man.
Beagle Pain Syndrome (BPS).
The compounds were administrated intravenously to beagle dogs. The dosage was given for five consecutive days. The dogs were evaluated for clinical and laboratory signs of the pain syndrome, e.g., fever, increased erythrocyte sedimentation rate (ESR), alkaline phosphate (AP), induction of acute phase proteins and vasculitis

For series [3], the system named is female rats during pregnancy. The following applies: no dose given, background statement; cited from earlier work.
The next series deals with man. The following applies: e.g. a flu-like syndrome; cited from earlier work.

For the compound `CCN(C(=O)c1c(O)c2c(SC)cccc2n(C)c1=O)c1ccccc1` [Compound A, N-ethyl-N-phenyl-1,2-dihydro-4-hydroxy-5-methylthio-1-methyl-2-oxo-quinoline-3-carboxamide], the “Teratogenic effects in the rat” value in series [1] is given as “non-teratogenic”.

With `CSc1cccc2c1c(O)c(C(=O)N(C)c1ccc(F)cc1F)c(=O)n2C` [Compound B, N-methyl-N-(2,4-difluoro-phenyl)-1,2-dihydro-4-hydroxy-5-methylthio-1-methyl-2-oxo-quinoline-3-carboxamide], in series [1], the “Teratogenic effects in the rat” value was “non-teratogenic”.

As for `CSc1cccc2c1c(O)c(C(=O)N(C)c1ccccc1)c(=O)n2C` [N-methyl-N-phenyl-1,2-dihydro-4-hydroxy-5-methylthio-1-methyl-2-oxo-quinoline-3-carboxamide], the “Teratogenic effects in the rat” value in series [1] is given as “teratogenic”.

`CN(C(=O)c1c(O)c2ccccc2n(C)c1=O)c1ccccc1` [Roquinimex, roquinimex]: in series [2], the “inhibition of acute experimental autoimmune encephalomyelitis (aEAE)” value is reported as “more than 50%”. Besides, the “induction of the Beagle Pain Syndrome (BPS)” value in the series with beagle dogs is reported as “induce the Beagle Pain Syndrome (BPS)”. For the same compound, the “teratogenic in the rat” value in series [3] is on record as “teratogenic”. In the series with man, the “side effects in man” value is reported as “induces dose-limiting side effects”.

The record behind these values is EP1097139B1, “QUINOLINE DERIVATIVES” (Active Biotech AB, priority 1998, dated 2000).
